Data from patent US7084158B2, “Substituted propargylamines” (Bayer Cropscience S.A., priority 2001, dated 2006).

Assays:
Format in all cases: in vivo
Set-up in all cases: key: compounds were considered to be active when, at a concentration of 500 ppm or less, they had an activity on the harmful organisms of 50% or more
Nilaparvata lugens = test: Example A: rice leaf dip, leafhopper larvae mortality; conditions: 500 ppm or less; L3 larvae on dipped rice plants; after 6 days
Procedure: The leaves of 12 rice plants having a stem length of 8 cm were dipped for 5 seconds into an aqueous solution of the formulated compound to be examined. After the solution had run off, the rice plants treated in this manner were placed into a Petri dish and populated with about 20 larvae (L3 stage) of the rice leafhopper species Nilaparvata lugens. The Petri dish was closed and then stored in a climatized chamber (16 hours of light/day, 25° C., 40–60% relative atmospheric humidity). After 6 days of storage, the mortality among the leafhopper larvae was determined. The compounds of the following examples were active: Nos. 29, 32, 42, 43, 51, 70, 84, 1002, 1004, 1005, 1040, 180, 184, 193, 197, 203, 209, 1059, 264, 265, 1066.

Aedes aegypti = test: Example AG: microtiter plate, yellow fever mosquito larvicidal activity; conditions: 500 ppm or less, after 3 days
Heliothis virescens = test: Example B: tobacco budworm eggs on filter paper/insect diet, mortality; conditions: 500 ppm or less; 24-hour-old eggs dipped, diet treated; after 6 days
Spodoptera littoralis = test: Example G: treated L2 larvae and insect diet, Egyptian cotton leafworm mortality; conditions: 500 ppm or less, after 6 days
Procedure: A Petri dish whose bottom was covered with filter paper and which contained about 5 ml of insect diet is prepared. Five L2 larvae of the Egyptian cotton leafworm (Spodoptera littoralis) were counted into a small beaker. 200 μl of an aqueous solution of the formulated preparation to be examined were pipetted into the beaker. The treated larvae were then poured into the Petri dish, and a further 200 μl of the aqueous solution were distributed over the insect diet. The Petri dish was closed and then stored at about 25° C. in a climatized chamber. After 6 days of storage, the effect of the compound on the larvae was determined (mortality). The compounds of the following examples were active: 29, 70, 60, 159, 1005, 1040, 1042, 1044, 1045, 1046, 1047.

Meloidogyne incognita = test: Example H: root gall nematode larvae immobilization (contact activity); conditions: 500 ppm or less; 2nd stage larvae; 6 days permanent exposure
Procedure: In a glass vessel, an aqueous solution of the formulated compound to be examined was added to about 3000 freshly hatched active (mobile) larvae (2nd development stage) of the root gall nematode (Meloidogyne incognita) (final volume 20 ml). After 6 days of permanent exposure of the nematode larvae, the percentage of the individual larvae immobilized by the activity of the compound was determined in comparison to the untreated controls (contact activity). The compounds of the following examples were active: 39, 52, 159, 161, 162, 163, 164, 165, 1045, 1046, 1047, 179, 183, 187, 1048, 298, 206, 208, 227, 230, 1061, 237, 238, 245, 250, 255, 256, 260, 268, 269, 274, 275, 288, 290.

[1] = test system: Diabrotica undecimpunctata; test: Example C: corn rootworm eggs with maize corn, mortality; conditions: 500 ppm or less; 4-5-day-old eggs; after 6 days
Carpocapsa pomonella = test: Example D: dipped apples, codling moth L1 larvae mortality; conditions: 500 ppm or less, after 14 days
Procedure: Apples were dipped into an aqueous solution of the formulated compound to be examined. The apples were then populated with 10 L1 larvae of the codling moth (Carpocapsa pomonella). After 14 days of storage at about 25° C., the effect of the compound on the larvae was determined (mortality). The compounds of the following examples were active: Nos. 14, 15, 17, 18, 70, 1007, 1008, 1009, 1036, 1038, 197.

| Structure (SMILES) | effect on the eggs and hatched larvae (mortality) (Heliothis virescens) | percentage of larvae immobilized (contact activity) (Meloidogyne incognita) | other results |
| --- | --- | --- | --- |
| CCc1ccc(C#CCN2CCC(C)CC2)cc1C(F)(F)F [Example 264] |  |  | mortality among the leafhopper larvae (Nilaparvata lugens): active; larvicidal activity (Aedes aegypti): active |
| C[C@@H]1C[C@H](C)CN(CC#Cc2cc(C(F)(F)F)cc(C(F)(F)F)c2)C1.Cl [Example 1044] | active |  | effect on the larvae (mortality) (Spodoptera littoralis): active |
| CC1CCN(CC#Cc2ccc([N+](=O)[O-])s2)CC1 [Example 208] |  | active |  |
| CC1CCN(CC#Cc2ccc(-c3cccc(Cl)c3Cl)cc2)CC1 [Example 180] | active |  | mortality among the leafhopper larvae (Nilaparvata lugens): active |
| CSc1nc(C#CCN2CC(C)CC(C)C2)cc(C(F)(F)F)n1 (stereo not shown) [Example 159] |  | active | effect on the larvae (mortality) (Spodoptera littoralis): active |
| CC1(C)CCCC(C)(C)N1CC#Cc1ccccc1 [Example 84] |  |  | mortality among the leafhopper larvae (Nilaparvata lugens): active |
| COc1c(Cl)cc(C#CCN2CCC(C)CC2)cc1Cl [Example 17] | active |  | effect on the eggs and hatched larvae (mortality) [1]: active; effect on the larvae (mortality) (Carpocapsa pomonella): active |
| CC1CCN(CC#Cc2cc(C(F)(F)F)ccn2)CC1 [Example 203] | active |  | effect on the eggs and hatched larvae (mortality) [1]: active; mortality among the leafhopper larvae (Nilaparvata lugens): active |
| CC1CCCCN1CC#Cc1cc(C(F)(F)F)cc(C(F)(F)F)c1 (stereo not shown) [Example 39] |  | active |  |
| CSc1nc(C#CCN2CCCCCC2)cc(C(F)(F)F)n1 [Example 164] |  | active |  |
| CC1CCN(CC#Cc2ccc(Br)c(C(F)(F)F)c2)CC1.O=C(O)/C=C\C(=O)O [Example 1066] |  |  | effect on the eggs and hatched larvae (mortality) [1]: active; mortality among the leafhopper larvae (Nilaparvata lugens): active; larvicidal activity (Aedes aegypti): active |
| CC1CCN(CC#Cc2ccc(Cl)c(C(F)(F)F)c2)CC1 [Example 14] | active |  | effect on the larvae (mortality) (Carpocapsa pomonella): active |
| Cc1nc(C#CCN2CCC(C)CC2)cc(C(F)(F)F)n1 [Example 161] |  | active |  |
| CC1CCN(CC#Cc2ccc(C(F)(F)F)cc2)CC1 [Example 29] | active |  | mortality among the leafhopper larvae (Nilaparvata lugens): active; effect on the larvae (mortality) (Spodoptera littoralis): active |
| Cc1cc(C#CCN2CCC(C)CC2)sc1-c1ccc(-c2ccccc2)cc1 [Example 237] |  | active |  |
| CCC1CCCN(CC#Cc2cc(C(F)(F)F)cc(C(F)(F)F)c2)C1 (stereo not shown) [Example 32] | active |  | effect on the eggs and hatched larvae (mortality) [1]: active; mortality among the leafhopper larvae (Nilaparvata lugens): active |
| CC1CCN(CC#Cc2nc(C(F)(F)F)ccc2C(F)(F)F)CC1 [Example 165] |  | active |  |
| Cc1ccccc1-c1ccc(C#CCN2CCC(C)CC2)cc1 [Example 183] | active | active |  |

| Structure (SMILES) | effect on the eggs and hatched larvae (mortality) (Heliothis virescens) | percentage of larvae immobilized (contact activity) (Meloidogyne incognita) | other results |
| --- | --- | --- | --- |
| Cc1cc(C#CCN2CCC(C)CC2)sc1-c1ccsc1 [Example 238] |  | active |  |
| CC1CCN(CC#Cc2ccc(C(F)(F)F)c(Cl)n2)CC1.Cl [Example 1048] | active | active |  |
| CC1CCN(CC#Cc2ccc(Cl)c(Cl)c2Cl)CC1 [Example 15] | active |  | effect on the larvae (mortality) (Carpocapsa pomonella): active |
| CC1CCN(CC#Cc2ccc(-c3ccc(F)cc3)s2)CC1 [Example 230] | active | active |  |
| CC1CCN(CC#Cc2cc(C(F)(F)F)cc(C(F)(F)F)c2)CC1C (stereo not shown) [Example 267] |  |  | effect on the eggs and hatched larvae (mortality) [1]: active; larvicidal activity (Aedes aegypti): active |
| CC1CCN(CC#Cc2ccc(-c3ccc(Cl)cc3Cl)s2)CC1 [Example 274] |  | active |  |
| CC1CCN(CC#Cc2ccc(-c3cccnc3Cl)cc2)CC1 [Example 187] |  | active |  |
| CC1CCN(CC#Cc2cc(C(F)(F)F)cc(C(F)(F)F)n2)CC1.O=C(O)C(F)(F)F [Example 1046] | active | active | effect on the larvae (mortality) (Spodoptera littoralis): active |
| CN1CCN(CC#Cc2cc(C(F)(F)F)cc(C(F)(F)F)c2)CC1 [Example 51] |  |  | mortality among the leafhopper larvae (Nilaparvata lugens): active |
| CC1CCN(CC#Cc2cc(C(F)(F)F)cc(C(F)(F)F)n2)CC1.CCCCCCCCC(=O)O [Example 1045] | active | active | effect on the larvae (mortality) (Spodoptera littoralis): active |
| CC1CCN(CC#Cc2ccc(C=O)s2)CC1 [Example 298] |  | active | effect on the eggs and hatched larvae (mortality) [1]: active |
| FC(F)(F)c1cc(C#CCN2CCCC3CCCCC32)cc(C(F)(F)F)c1 (stereo not shown) [Example 42] |  |  | mortality among the leafhopper larvae (Nilaparvata lugens): active |
| Cc1ccc([N+](=O)[O-])cc1-c1ccc(C#CCN2CCC(C)CC2)cc1 [Example 179] | active | active |  |
| CN1CCN(CC#Cc2ccc(C(F)(F)F)cc2)CC1 [Example 52] |  | active |  |
| Cc1cc(C#CCN2CCC(C)CC2)cc(C(F)(F)F)c1.Cl [Example 1069] |  |  | effect on the eggs and hatched larvae (mortality) [1]: active; larvicidal activity (Aedes aegypti): active |
| CC1CCN(CC#Cc2cccc(-c3nccs3)c2)CC1 [Example 227] |  | active |  |
| CC1CCN(CC#Cc2ccc(C(F)(F)F)cc2)CC1.Cl [Example 1042] | active |  | effect on the eggs and hatched larvae (mortality) [1]: active; effect on the larvae (mortality) (Spodoptera littoralis): active |
